Patent US5750733A, “Hydroxy containing alkyl glycamides, low foaming detergent compositions comprising such and a process for their manufacture” (Lever Brothers Company, Division of Conopco, Inc., priority 1996, dated 1998)

Legend:
[1] = Ross-Miles Foam Height of Various Sugar Based Surfactants; settings: 0.1% surfactant, 50° C.; for Initial foam height / Final foam height (10 min.): 0 ppm hardness; for Final foam height (10 min.): after 10 minutes; for solubility in foam height test (in words): foam height cannot be measured if insoluble
Protocol: Since most of the foaming data on surfactants is typically obtained by the Ross-Miles Foam Height Assay (Ross, J. and Miles, G. D. Am Soc. for Testing material Method D1173-63 Philadelphia, Pa. (1953); Oil & Soap (1958)62:1260) the foaming ability of these surfactants were acquired using this method.
In the Ross-Miles method, 200 mL of a surfactant solution contained in a pipette of specified dimensions with a 2.9 -mm-i.d. orifice is allowed to fall 90 cm onto 50 mL of the same solution contained in a cylindrical vessel maintained at a given temperature by means of a water jacket. The height of the foam produced in the cylindrical vessel is read immediately after all the solution has run out of the pipette and then again after a given amount of time.
Using this method, the foam production (initial foam height in mm) and foam stability (final foam height after 10 minutes as measured in mm) were measured at 0.1% sugar surfactant concentration, 50° C. and 0 ppm (parts per million) hardness.

[2] = Micellization and Surface Tension Reduction; format: physicochemical; settings: in water
Excerpt: The appearance and development of micelles are important since detergency (solubilization of soils) by dishwashing liquids, shampoos, detergents, etc., depend on the formation of these aggregates in solution.

[3] = Krafft Point (Water Solubility Test); settings: for Krafft Point (0.1%): 0.1% dispersion in water by weight; for water solubility (in words): 0.1% in water, Krafft point test
Protocol: The temperature at and above which surfactants begin to form micelles instead of precipitates is referred to as the Krafft point (Tk) and at this temperature the solubility of a surfactant becomes equal to its CMC (numerical value at which micelles are formed).
The Krafft point was measured by preparing 650 ml of a 0.1% dispersion of surfactant in water by weight. If the surfactant was soluble at room temperature, the solution was slowly cooled to 0° C. […] If it precipitated out of solution, the temperature at which precipitation occurs was taken as the Krafft point.
If the surfactant was insoluble at room temperature, the dispersion was slowly heated until the solution became homogeneous. It was then slowly cooled until precipitation occurred. The temperature at which the surfactant precipitates out of solution upon cooling was taken as the Krafft point.

[4] = Foaming of a Prototype Detergent Formulation (Ross Miles Foam Height Method); format: physicochemical; settings: for Foam height of formulation, 5 min / Foam height of formulation, 10 min / Foam height of formulation, Initial: formulation with 4% of the compound, 0.4% formulation, 25° C., 18 FH
Excerpt: A prototype detergent formulation comprising a hydroxy containing alkyl glycamide surfactant was made and tested to an identical formulation containing a non-hydroxy containing alkyl glycamide. The formulation is as follows: […]
C10 -C14 Linear Alkylbenzene Sulfonate
C12 -C15 Alcohol Ethoxylate Containing 7 Units of
Dodecyl 5-Hydroxy D-Glucamide (or Comparative)
Sodium Tripolyphosphate 30
Sodium Carboxymethyl Cellulose

[5] = Clarity Enhancement of prototype detergent compositions with sodium lauryl sulfate; format: physicochemical; settings: 3% compound with 15.0% sodium lauryl sulfate, room temperature; for Appearance: stored 6 months
Protocol: The prototype detergent composition is as follows:
Hydroxy Containing Alkyl
Glycamide (or Comparative)
Sodium Chloride 2.0% Viscosity Cobuilder
The above formulations were prepared by admixing the above ingredients in listed order and heating the mixture to about 80° C. with rapid stirring. The mixture was then cooled to about 40° C., placed in a clear jar and stored at room temperature for 6 months.

zein = system: zein
Protocol: The zein solubilization assay was developed to determine the biological effects of surfactants on the skin. The protein is normally insoluble in water, but can be brought into solution by interaction with surfactants. The extent of zein dissolved is related to the irritation potential (M. J. Schwinger, Kolloid-Z.Z. Poly., 233, 848, 1969). The greater the zein solubilization, the greater the irritation potential of that surfactant on the skin.
Thus, a 1% solution of surfactant (30 mls) was added to 1.5 g of zein and stirred at room temperature for 1 hours. Residual zein was collected and dried to constant weight. Differences between starting and residual weight were used to calculate % zein solubilized.

Question: What does the source list for `CCCCCCCCNC(=O)[C@H](O)[C@@H](O)[C@H](O)[C@H](O)CO` [Octyl D-Gluconamide]?
Answer: Initial foam height [1]: 0 mm; Final foam height (10 min.) [1]: 0 mm; Micellization and Surface Tension Reduction [2]: Yes; Krafft Point (0.1%) [3]: 12 °C

Question: For `CCCCCCCCCCCCNC(=O)[C@@H](O)[C@H](O)[C@@H](O)[C@@H](O)CO` [Dodecyl L-Gluconamide], which “solubility in foam height test (in words)” value [1] is on record?
Answer: Its value is “Insoluble”.

Question: What about the “Micellization and Surface Tension Reduction” value [2] of the same compound?
Answer: The value was “No”.

Question: What about the “Krafft Point (0.1%)” value [3] of the same compound?
Answer: The value was over 100 °C.

Question: What about the “water solubility (in words)” value [3] of the same compound?
Answer: Its value is “Insoluble”.

Question: What does the source list for `CCCCCCCCCCCCCCCC(=O)NC[C@H](O)[C@@H](O)[C@H](O)[C@H](O)CO` [Hexadecyl D-Glucamide]?
Answer: solubility in foam height test (in words) [1]: Insoluble; Micellization and Surface Tension Reduction [2]: No; Krafft Point (0.1%) [3]: > 100 °C; water solubility (in words) [3]: Insoluble

Question: For `CCCCCCCCCCCC(=O)N(C)C[C@H](O)[C@@H](O)[C@H](O)[C@H](O)CO` [Dodecyl Methyl D-Glucamide, dodecyl methyl D-glucamide], which Initial foam height [1] is on record?
Answer: The Initial foam height was 173 mm.

Question: And the “Final foam height (10 min.)” value [1]?
Answer: The value was 157 mm.

Question: And the “Micellization and Surface Tension Reduction” value [2]?
Answer: The value was “Yes”.

Question: And the “Foam height of formulation, 5 min” value [4]?
Answer: Its value is 110 mm.

Question: What about the “Foam height of formulation, 10 min” value [4] of the same compound?
Answer: Its value is 100 mm.

Question: And the “Foam height of formulation, Initial” value [4]?
Answer: The value was 135 mm.

Question: And the “Krafft Point (0.1%)” value [3]?
Answer: The value was 45 °C.

Question: Which results are given for `CCCCCCCCCCCCNC(=O)[C@H](O)[C@@H](O)[C@H](O)[C@H](O)CO` [Dodecyl D-Gluconamide]?
Answer: solubility in foam height test (in words) [1]: Insoluble; Micellization and Surface Tension Reduction [2]: No; Krafft Point (0.1%) [3]: > 100 °C; water solubility (in words) [3]: Insoluble

Question: Which results are given for `CN(C[C@H](O)[C@@H](O)[C@H](O[C@H]1O[C@H](CO)[C@@H](O)[C@H](O)[C@H]1O)[C@H](O)CO)C(=O)CCCCCCCCCCCO` [Dodecyl 12-Hydroxy Methyl D-Maltamide, dodecyl 12-hydroxy methyl D-maltamide]?
Answer: Initial foam height [1]: 57 mm; Final foam height (10 min.) [1]: Negligible; Micellization and Surface Tension Reduction [2]: Yes; Krafft Point (0.1%) [3]: < 21 °C

Question: For `CCCCCCCCCCCCCCCCCC(=O)NC[C@H](O)[C@@H](O)[C@H](O)[C@H](O)CO` [Octadecyl D-Glucamide], which “solubility in foam height test (in words)” value [1] is on record?
Answer: The value was “Insoluble”.

Question: And the “Micellization and Surface Tension Reduction” value [2]?
Answer: Its value is “No”.

Question: What about the “Krafft Point (0.1%)” value [3] of the same compound?
Answer: The value was over 100 °C.

Question: What about the “water solubility (in words)” value [3] of the same compound?
Answer: Its value is “Insoluble”.

Question: Which “solubility in foam height test (in words)” value [1] does the source give for `CCCCCCCCCCCCCCNC(=O)[C@H](O)[C@@H](O)[C@H](O)[C@H](O)CO` [Tetradecyl D-Gluconamide] here?
Answer: Its value is “Insoluble”.

Question: What about the “Micellization and Surface Tension Reduction” value [2] of the same compound?
Answer: Its value is “No”.

Question: And the “Krafft Point (0.1%)” value [3]?
Answer: Its value is over 100 °C.

Question: What about the “water solubility (in words)” value [3] of the same compound?
Answer: Its value is “Insoluble”.

Question: What does the source list for `CCCCCCCC(O)CCC(=O)NC[C@H](O)[C@@H](O)[C@H](O)[C@H](O)CO` (stereo partly drawn) [Undecyl 4-Hydroxy D-Glucamide, undecyl-4-hydroxy D-glucamide]?
Answer: Initial foam height [1]: 60 mm; Final foam height (10 min.) [1]: Negligible; Micellization and Surface Tension Reduction [2]: Yes; Krafft Point (0.1%) [3]: 37 °C

Question: Which results are given for `CCCCCCCCCCCCCC(=O)NC[C@H](O)[C@@H](O)[C@H](O)[C@H](O)CO` [Tetradecyl D-Glucamide]?
Answer: solubility in foam height test (in words) [1]: Insoluble; Micellization and Surface Tension Reduction [2]: No; Krafft Point (0.1%) [3]: > 100 °C; water solubility (in words) [3]: Insoluble

Question: For `CCCCCCCC(O)CCCC(=O)NC[C@H](O)[C@@H](O)[C@H](O)[C@H](O)CO` (stereo partly drawn) [Dodecyl 5-Hydroxy D-Glucamide, dodecyl 5-hydroxy D-glucamide], which Appearance ([5]; listed as C12 5-Hydroxy D-Glucamide) is on record?
Answer: The Appearance was “Clear”.

Question: And the Appearance ([5]; listed as dodecyl 5-hydroxy glucamide)?
Answer: Its Appearance is “stay in solution”.

Question: What about the Initial foam height [1] of the same compound?
Answer: Its Initial foam height is 67 mm.

Question: What about the “Final foam height (10 min.)” value [1] of the same compound?
Answer: The value was “Negligible”.

Question: What about the “Micellization and Surface Tension Reduction” value [2] of the same compound?
Answer: The value was “Yes”.

Question: And the “% Zein Solubilized” value (zein)?
Answer: Its value is 7%.

Question: What about the “mildness / zein solubilization (in words)” value (zein) of the same compound?
Answer: Its value is “less zein solubilization”.

Question: And the “foaming of formulation (in words)” value ([4]; compared to identical formulation with dodecyl methyl D-glucamide)?
Answer: The value was “low foaming compared to identical formulations containing dodecyl methyl D-glucamide”.

Question: And the “Foam height of formulation, 5 min” value [4]?
Answer: Its value is 94 mm.

Question: What about the “Foam height of formulation, 10 min” value [4] of the same compound?
Answer: The value was 75 mm.

Question: And the “Foam height of formulation, Initial” value [4]?
Answer: Its value is 125 mm.

Question: And the “Krafft Point (0.1%)” value [3]?
Answer: Its value is 41 °C.

Question: With `CCCCCCCCCCNC(=O)[C@H](O)[C@@H](O)[C@H](O)[C@H](O)CO` [Decyl D-Gluconamide] as the compound, how does the Initial foam height [1] read?
Answer: The Initial foam height was 199 mm.

Question: What about the “Final foam height (10 min.)” value [1] of the same compound?
Answer: Its value is 6 mm.

Question: What about the “Micellization and Surface Tension Reduction” value [2] of the same compound?
Answer: Its value is “Yes”.

Question: What about the “Krafft Point (0.1%)” value [3] of the same compound?
Answer: The value was 75 °C.

Question: Which “solubility in foam height test (in words)” value [1] does the source give for `CCCCCCCCCCCCCCCCNC(=O)[C@H](O)[C@@H](O)[C@H](O)[C@H](O)CO` [Hexadecyl D-Gluconamide] here?
Answer: The value was “Insoluble”.

Question: What about the “Micellization and Surface Tension Reduction” value [2] of the same compound?
Answer: Its value is “No”.

Question: And the “Krafft Point (0.1%)” value [3]?
Answer: Its value is over 100 °C.

Question: What about the “water solubility (in words)” value [3] of the same compound?
Answer: The value was “Insoluble”.

Question: For `CCCCCCCCCCCC(=O)NC[C@H](O)[C@@H](O)[C@H](O)[C@H](O)CO` [Dodecyl D-Glucamide, dodecyl D-glucamide], which Time to precipitation [5] is on record?
Answer: The Time to precipitation was at most 3 days.

Question: And the Appearance [5]?
Answer: Its Appearance is “Precipitate”.

Question: And the Time to precipitation ([5]; listed as C12 D-Glucamide)?
Answer: Its Time to precipitation is 3 days.

Question: What about the “solubility in foam height test (in words)” value [1] of the same compound?
Answer: Its value is “Insoluble”.

Question: What about the “Micellization and Surface Tension Reduction” value [2] of the same compound?
Answer: The value was “No”.

Question: And the “Krafft Point (0.1%)” value [3]?
Answer: Its value is over 100 °C.

Question: And the “water solubility (in words)” value [3]?
Answer: The value was “Insoluble”.
